According to patent US10293004B2, “Butyrate-producing bacterium and use thereof” (KABUSHIKI KAISHA YAKULT HONSHA, priority 2014, dated 2019):

How the values were obtained:
[1] = Production of butyrate by each bacterial strain from L-sorbose and D-xylitol (ion-exclusion HPLC); settings: 24 hours, minus PYA blank
Protocol: A frozen stock solution of each bacterial strain (a 10% (w/v) skim milk-2% sodium glutamate solution in which bacterial cells were suspended) (cell count: 2.0 to 5.5×10^10 cells/mL) was thawed, and the solution was inoculated at 1% to 4 mL of a PY liquid medium supplemented with 33 mM sodium acetate and 0.5 (w/v) % glucose (PYGA medium), followed by anaerobic culture at 37° C. for 24 hours. After the culture, the culture solution was inoculated at 1% to a fresh PYGA medium, followed by anaerobic culture at 37° C. for 24 hours. After the culture, the turbidity (OD660) of the culture solution was measured. Then, the culture solution was inoculated at 1% to a PY medium containing 0.5 (w/v) % L-sorbose or D-xylitol and 33 mM sodium acetate (the medium containing L-sorbose: PYSA, and the medium containing D-xylitol: PYXA), followed by anaerobic culture at 37° C. for 24 hours. Then, the turbidity (OD660) was measured.
After the completion of the culture, the organic acid concentration in the culture solution was quantified by ion-exclusion HPLC. In this operation, a culture solution in a PY medium supplemented with sodium acetate but without L-sorbose or D-xylitol (PYA medium) was used as a blank.
(HPLC Analysis Conditions) • Eluent: 15 mM perchloric acid-7% acetonitrile • pH adjuster: 15 mM perchloric acid-60 mM • tris(hydroxymethyl)aminomethane-7% acetonitrile • Separation column: Organic acid analysis column RSpak KC- • 811×2 (manufactured by Showa Denko K.K.) • Column temperature: 42° C. • Injected sample volume: 10 μL • Flow rate: 1.0 mL/min • Analysis time: 35 min • Detector: Waters 432 electric conductivity detector • Cell temperature: 45° C.
The amount of butyrate produced was calculated according to (Expression 1). Amount of butyrate produced=(Amount of butyrate produced by culture for 24 hours in a PYSA or PYXA medium)−(Amount of butyrate produced by culture for 24 hours in a PYA medium) (Expression 1)

[2] = Biochemical properties: saccharide fermentability (API-ZYM, Rapid ID32A API, API KENKI 20A); set-up: key: +: positive reaction; −: negative reaction; +^w: weak reaction
Excerpt: Commercially available API-ZYM, Rapid ID32A API, and API KENKI 20A (SYSMEX bioMerieux Co., Ltd.) were used in the testing of biochemical properties of various bacterial strains. The testing method followed the product manuals.

Q: Which “Amount of butyrate produced” value ([1]; D-Xylitol 0.5 (w/v) %, PYXA medium) does the source give for “A. hadrus (Eubacterium hadrum) YIT 12355 (NITE BP-01832)” here?
A: 31.9 mmol/L

Q: And the “Amount of butyrate produced” value ([1]; L-Sorbose 0.5 (w/v) %, PYSA medium)?
A: 15.4 mmol/L

Q: And the Aesculin [2]?
A: +

Q: And the D-Cellobiose [2]?
A: +^w

Q: What about the D-Mannitol [2] of the same substance?
A: +

Q: And the D-Raffinose [2]?
A: −

Q: And the D-Xylose [2]?
A: +

Q: What about the Glycerol [2] of the same substance?
A: +^w

Q: And the L-Arabinose [2]?
A: +

Q: What about the L-Rhamnose [2] of the same substance?
A: +

Q: What about the L-Sorbitol [2] of the same substance?
A: +

Q: What about the Mallose [2] of the same substance?
A: +

Q: And the Salicin [2]?
A: +
